Measurements taken from ChEMBL document CHEMBL1201862, “PubChem BioAssay data set” (2004).
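Where inhibition never reached the appropriate level, the endpoint shown equals the highest concentration tested. Otherwise, values were interpolated linearly from a five-concentration, 48-hour dose response in 96-well plates. The concentration for 50% growth inhibition is given as GI50.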 The source made the active and inactive calls. No stated cut-off is given here; in the data, active = GI50 up to about 1.1 µM and inactive = higher.

Columns and labels:
Experiment in all cases: NCI tumour cell line growth inhibition, 48 h
[1] = test system: ACHN
[2] = test system: NCI-H522
[3] = test system: DU-145
[4] = test system: MDA-N
[5] = test system: HOP-62
[6] = test system: HOP-92
[7] = test system: SNB-19
[8] = test system: NCI-H23
[9] = test system: K562
[10] = test system: OVCAR-5
[11] = test system: HCT-15
[12] = test system: SK-MEL-5
[13] = test system: SF-295
[14] = test system: SR
[15] = test system: SNB-75
[16] = test system: SN12C
[17] = test system: TK-10
[18] = test system: U-251
[19] = test system: 786-0
[20] = test system: OVCAR-8

Structure (SMILES)	GI50 [1]	GI50 [2]	GI50 [3]	GI50 [4]	GI50 [5]	GI50 [6]	GI50 [7]	GI50 [8]	GI50 [9]	GI50 [10]	GI50 [11] [µM]	GI50 [12]	GI50 [13]	GI50 [14]	GI50 [15]	GI50 [16]	GI50 [17]	GI50 [18]	GI50 [19]	GI50 [20]
CN(Cc1cc(C(C)(C)C)cc(Br)c1O)Cc1cc(C(C)(C)C)cc(Br)c1O	2.94 µM (inactive)	2.84 µM (inactive)	6.1 µM (inactive)	4.5 µM (inactive)	4.08 µM (inactive)	4.23 µM (inactive)	6.61 µM (inactive)	3.15 µM (inactive)	3.13 µM (inactive)	5.52 µM (inactive)	3.12	2.76 µM (inactive)	4.02 µM (inactive)	2.86 µM (inactive)	3.66 µM (inactive)	4.19 µM (inactive)	2.17 µM (inactive)	2.65 µM (inactive)	3.69 µM (inactive)	4.33 µM (inactive)
CCOC(=O)NC(C(=O)OCC)(N1CCN(c2cc3c(cc2F)c(=O)c(C(=O)O)cn3CC)CC1)C(F)(F)F (stereo not given)	> 100 µM (inactive)	> 100 µM (inactive)	> 100 µM (inactive)	> 100 µM (inactive)	> 100 µM (inactive)	> 100 µM (inactive)	> 100 µM (inactive)	> 100 µM (inactive)	> 100 µM (inactive)	> 100 µM (inactive)	> 100	> 100 µM (inactive)	> 100 µM (inactive)	> 100 µM (inactive)	> 100 µM (inactive)	> 100 µM (inactive)	> 100 µM (inactive)	58.1 µM (inactive)	> 100 µM (inactive)	6.1 µM (inactive)
c1ccc(CCCCNCc2cc(CNCCCCc3ccccc3)cc(CNCCCCc3ccccc3)c2)cc1	1.63 µM (inactive)	0.667 µM (active)	0.762 µM (active)	2.36 µM (inactive)	1.75 µM (inactive)	1.45 µM (inactive)	0.714 µM (active)	1.28 µM (inactive)	0.272 µM (active)	1.7 µM (inactive)	0.586	1.81 µM (inactive)	1.81 µM (inactive)	0.216 µM (active)	1.66 µM (inactive)	3.63 µM (inactive)	1.82 µM (inactive)	1.12 µM (inactive)	1.31 µM (inactive)	0.782 µM (active)
C=CCN1C[C@H](C)N([C@@H](c2ccc(C(=O)N3CCCCC3)cc2)c2cccc(OC)c2)C[C@H]1C	32.3 µM (inactive)	21.7 µM (inactive)	80.5 µM (inactive)	34.5 µM (inactive)	> 100 µM (inactive)	98.6 µM (inactive)	50.5 µM (inactive)	42.4 µM (inactive)	20.6 µM (inactive)	58.1 µM (inactive)	29.6	19.1 µM (inactive)	45.2 µM (inactive)	16.1 µM (inactive)	40 µM (inactive)	43 µM (inactive)	40 µM (inactive)	32.1 µM (inactive)	37.9 µM (inactive)	43.7 µM (inactive)
CCOC(=O)c1cn2c(n1)sc1c(Cl)c(Cl)ccc12	15.3 µM (inactive)	4.11 µM (inactive)	18.1 µM (inactive)	1.56 µM (inactive)	15.5 µM (inactive)	24.5 µM (inactive)	25.3 µM (inactive)	29.4 µM (inactive)	3.96 µM (inactive)	30.2 µM (inactive)	5.07	6.7 µM (inactive)	22.9 µM (inactive)	2.55 µM (inactive)	15 µM (inactive)	3.45 µM (inactive)	24.4 µM (inactive)	11 µM (inactive)	7.66 µM (inactive)	15.9 µM (inactive)
CC1(C)OC(=O)C(C)(C)OC1=O	> 100 µM (inactive)	> 100 µM (inactive)	> 100 µM (inactive)	> 100 µM (inactive)	> 100 µM (inactive)	> 100 µM (inactive)	> 100 µM (inactive)	> 100 µM (inactive)	> 100 µM (inactive)	> 100 µM (inactive)	> 100	> 100 µM (inactive)	> 100 µM (inactive)	> 100 µM (inactive)	> 100 µM (inactive)	> 100 µM (inactive)	> 100 µM (inactive)	> 100 µM (inactive)	> 100 µM (inactive)	> 100 µM (inactive)
O=C(/C=C/c1cccc(Br)c1)N1CCN(CCOC(c2ccccc2)c2ccccc2)CC1	57.3 µM (inactive)	29.1 µM (inactive)	37.5 µM (inactive)	41.4 µM (inactive)	> 100 µM (inactive)	23 µM (inactive)	> 100 µM (inactive)	42 µM (inactive)	13 µM (inactive)	> 100 µM (inactive)	27.6	16 µM (inactive)	53.7 µM (inactive)	16.1 µM (inactive)	26.2 µM (inactive)	31.7 µM (inactive)	> 100 µM (inactive)	35.3 µM (inactive)	40.1 µM (inactive)	55.5 µM (inactive)
CC(C)(C)N1C=[N+](C(C)(C)C)CC1	> 100 µM (inactive)	> 100 µM (inactive)	> 100 µM (inactive)	> 100 µM (inactive)	> 100 µM (inactive)	> 100 µM (inactive)	> 100 µM (inactive)	> 100 µM (inactive)	> 100 µM (inactive)	> 100 µM (inactive)	> 100	> 100 µM (inactive)	> 100 µM (inactive)	> 100 µM (inactive)	75 µM (inactive)	> 100 µM (inactive)	> 100 µM (inactive)	> 100 µM (inactive)	> 100 µM (inactive)	> 100 µM (inactive)
CC(N)/C(N)=N/O (stereo not given)	> 100 µM (inactive)	> 100 µM (inactive)	> 100 µM (inactive)	> 100 µM (inactive)	> 100 µM (inactive)	> 100 µM (inactive)	> 100 µM (inactive)	> 100 µM (inactive)	> 100 µM (inactive)	> 100 µM (inactive)	> 100	> 100 µM (inactive)	> 100 µM (inactive)	> 100 µM (inactive)	> 100 µM (inactive)	> 100 µM (inactive)	> 100 µM (inactive)	> 100 µM (inactive)	> 100 µM (inactive)	> 100 µM (inactive)
O=C(NNCc1ccc(Cl)cc1)Nc1cccc2ccccc12	45 µM (inactive)	27.3 µM (inactive)	69.2 µM (inactive)	> 100 µM (inactive)	48.2 µM (inactive)	29.3 µM (inactive)	> 100 µM (inactive)	> 100 µM (inactive)	> 100 µM (inactive)	94.6 µM (inactive)	> 100	76.2 µM (inactive)	82 µM (inactive)	> 100 µM (inactive)	> 100 µM (inactive)	> 100 µM (inactive)	> 100 µM (inactive)	58.5 µM (inactive)	51.6 µM (inactive)	> 100 µM (inactive)
CC1CC2OC(=N)C1(C#N)C2(C#N)C#N (stereo not given)	31.4 µM (inactive)	13.5 µM (inactive)	56.6 µM (inactive)	16.3 µM (inactive)	16.8 µM (inactive)	17.9 µM (inactive)	34.8 µM (inactive)	23.6 µM (inactive)	17.9 µM (inactive)	21.6 µM (inactive)	14	10.4 µM (inactive)	79.1 µM (inactive)	25.3 µM (inactive)	11.5 µM (inactive)	19.5 µM (inactive)	26.8 µM (inactive)	27.9 µM (inactive)	17.9 µM (inactive)	25.1 µM (inactive)
Cc1cccc2sc(NC(=O)c3cc([N+](=O)[O-])ccc3Cl)nc12	5.41 µM (inactive)	1.78 µM (inactive)	3.33 µM (inactive)	1.56 µM (inactive)	11.8 µM (inactive)	2.77 µM (inactive)	7.78 µM (inactive)	2.79 µM (inactive)	> 100 µM (inactive)	5.87 µM (inactive)	1.91	1.84 µM (inactive)	4.82 µM (inactive)	> 100 µM (inactive)	1 µM (active)	1.55 µM (inactive)	2.59 µM (inactive)	2.85 µM (inactive)	1.89 µM (inactive)	2.36 µM (inactive)
COc1cc(-c2cc(=O)c3cc4c(cc3[nH]2)OCO4)cc(OC)c1O	> 10 µM (inactive)	> 10 µM (inactive)	> 10 µM (inactive)	> 10 µM (inactive)	> 10 µM (inactive)	> 10 µM (inactive)	> 10 µM (inactive)	> 10 µM (inactive)	> 10 µM (inactive)	> 10 µM (inactive)	> 10	> 10 µM (inactive)	> 10 µM (inactive)	> 10 µM (inactive)	> 10 µM (inactive)	> 10 µM (inactive)	> 10 µM (inactive)	> 10 µM (inactive)	> 10 µM (inactive)	> 10 µM (inactive)
Nc1ccccc1/N=N/c1c(S(=O)(=O)O)cc2cc(S(=O)(=O)O)cc(O)c2c1O	> 100 µM (inactive)	> 100 µM (inactive)	> 100 µM (inactive)	32.4 µM (inactive)	> 100 µM (inactive)	> 100 µM (inactive)	> 100 µM (inactive)	> 100 µM (inactive)	> 100 µM (inactive)	> 100 µM (inactive)	> 100	> 100 µM (inactive)	> 100 µM (inactive)	> 100 µM (inactive)	> 100 µM (inactive)	11.2 µM (inactive)	> 100 µM (inactive)	> 100 µM (inactive)	45.7 µM (inactive)	> 100 µM (inactive)
